{"source": "ChEMBL document CHEMBL5214906", "about": "“Novel Antiplasmodial Compounds Leveraged with Multistage Potency against the Parasite Plasmodium falciparum: In Vitro and In Vivo Evaluations and Pharmacokinetic Studies” (J Med Chem, 2021)", "key": {"[1]": {"assay": "Toxicity in C57BL/6 mouse assessed as effect on SGPT level in serum at 400 mg/kg, ip measured upto 24 hrs (reference value: 37.59 U/L)", "type": "organism-based", "settings": "in vivo"}, "[2]": {"assay": "Toxicity in C57BL/6 mouse assessed as effect on albumin level at 400 mg/kg, ip measured upto 24 hrs (reference value: 2.10 gm/dl)", "type": "organism-based", "settings": "in vivo"}, "[3]": {"system": "Plasmodium falciparum", "assay": "Antiplasmodial activity against Plasmodium falciparum 3D7 infected in human red blood cells assessed as inhibition of parasitemia incubated for 48 hrs by giemsa staining based light microscopic analysis", "type": "functional, organism-based, Red blood cell", "settings": "3D7, Erythrocyte"}, "[4]": {"system": "Plasmodium falciparum", "assay": "Inhibition of Plasmodium falciparum plasmepsin X […] at 1 uM using DABCYL-G-PSFVEAPVRGG-EDANS as substrate by fluorescence based assay relative to control"}, "[5]": {"assay": "Toxicity in C57BL/6 mouse assessed as effect on motor activity at 100 to 400 mg/kg, ip measured upto 24 hrs", "type": "organism-based", "settings": "in vivo, dose 100-400 mg/kg"}, "[6]": {"assay": "Therapeutic index, ratio of TC50 for cytotoxicity against human HepG2 cells to IC50 for antiplasmodial activity against Plasmodium falciparum 3D7 infected in human red blood cells", "type": "toxicity, cell-based", "settings": "read-out: TI"}, "[7]": {"system": "Erythrocyte", "assay": "Hemolytic activity against human red blood cells upto 1600 uM incubated for 1 hrs by hemolysis assay", "type": "toxicity, cell-based"}, "[8]": {"assay": "Toxicity in C57BL/6 mouse assessed as effect on direct bilirubin level at 400 mg/kg, ip measured upto 24 hrs (reference value: 0.17 mg/dl)", "type": "organism-based", "settings": "in vivo"}, "[9]": {"system": "Plasmodium berghei", "assay": "In vivo antimalarial activity against Plasmodium berghei ANKA infected in C57BL/6 mouse assessed as reduction in parasitemia at 50 mg/kg, ip administered for 4 days and measured at day 8 post-infection in the presence of artesunate by giemsa staining based microscopic analysis relative to control", "type": "functional", "set-up": "scale not given: the % may be the effect or the level left", "settings": "time 8 day"}, "[10]": {"assay": "Toxicity in C57BL/6 mouse assessed as effect on serum uric acid level at 400 mg/kg, ip measured upto 24 hrs (reference value: 2.58 mg/dl)", "type": "organism-based", "settings": "in vivo"}, "[11]": {"system": "Plasmodium berghei", "assay": "Antiplasmodial activity against Plasmodium berghei isolated from parasite-infected mouse blood assessed as reduction in number of healthy parasites in compound treated ookinete medium co-cultured with mouse blood at 0.05 to 0.45 uM by giemsa staining based analysis", "type": "functional, organism-based", "settings": "dose 0.05-0.45 µM"}, "[12]": {"system": "Plasmodium berghei", "assay": "In vivo antimalarial activity against GFP-expressing Plasmodium berghei infected in C57BL/6 mouse assessed as inhibition of parasite growth in thin blood smear at 50 mg/kg, ip administered for 4 days and measured upto 8 days post-infection by giemsa staining based microscopic analysis", "type": "functional, organism-based", "settings": "time <= 8.0 day"}, "[13]": {"system": "Plasmodium berghei", "assay": "Antimalarial activity against Plasmodium berghei assessed as reduction in Plasmodium berghei oocyte formation in Anopheles stephensi mosquito midgut fed with blood isolated from compound treated parasite-infected Balb/c mouse at 200 mg/kg administered on day 1 and day 9", "type": "functional, organism-based", "settings": "time 9.0 day"}, "[14]": {"assay": "Toxicity in C57BL/6 mouse assessed as effect on serum creatinine level at 400 mg/kg, ip measured upto 24 hrs (reference value: 0.47 mg/dl)", "type": "organism-based", "settings": "in vivo"}, "[15]": {"assay": "Toxicity in C57BL/6 mouse assessed as effect on total bilirubin level at 400 mg/kg, ip measured upto 24 hrs (reference value: 0.39 mg/dl)", "type": "organism-based", "settings": "in vivo"}, "[16]": {"assay": "Drug recovery in C57BL/6 mouse plasma at 0.1 mg/ml", "type": "ADME, cell-free"}, "[17]": {"system": "Plasmodium berghei", "assay": "In vivo antimalarial activity against Plasmodium berghei ANKA infected in C57BL/6 mouse assessed as reduction in parasitemia at 50 mg/kg, ip administered for 4 consecutive days and measured on day 8 post-infection by giemsa staining based microscopic analysis relative to control", "type": "functional", "set-up": "scale not given: the % may be the effect or the level left", "settings": "time 8 day"}, "[18]": {"assay": "Toxicity in C57BL/6 mouse assessed as effect on body weight at 100 to 400 mg/kg, ip measured upto 24 hrs", "type": "organism-based", "settings": "in vivo, dose 100-400 mg/kg"}, "[19]": {"assay": "Toxicity in C57BL/6 mouse assessed as effect on total protein level at 400 mg/kg, ip measured upto 24 hrs (reference value: 6.29 gm/dl)", "type": "organism-based", "settings": "in vivo"}, "[20]": {"assay": "Toxicity in C57BL/6 mouse assessed as effect on serum calcium level at 400 mg/kg, ip measured upto 24 hrs (reference value: 8.89 mg/dl)", "type": "organism-based", "settings": "in vivo"}, "[21]": {"assay": "Toxicity in C57BL/6 mouse assessed as effect on liver structure at 400 mg/kg, ip measured upto 24 hrs by H&E staining based histopathological analysis", "type": "organism-based", "settings": "in vivo"}, "[22]": {"assay": "Toxicity in C57BL/6 mouse assessed as effect on feeding at 100 to 400 mg/kg, ip measured upto 24 hrs", "type": "organism-based", "settings": "in vivo, dose 100-400 mg/kg"}, "[23]": {"system": "Plasmodium berghei", "assay": "Antiplasmodial activity against firefly luciferase-expressing Plasmodium berghei liver stage infected in human Huh-7 cells assessed as inhibition of parasite growth preincubated with cells for 1 hrs followed by parasite infection and […] by bioluminescence assay", "type": "functional, organism-based"}, "[24]": {"system": "Plasmodium berghei", "assay": "In vivo antimalarial activity against GFP-expressing Plasmodium berghei infected in C57BL/6 mouse assessed as inhibition of parasite growth in thick blood smear at 50 mg/kg, ip administered for 4 days and measured upto 8 days post-infection by microscopic analysis", "type": "functional, organism-based", "settings": "time <= 8.0 day"}, "[25]": {"assay": "Toxicity in C57BL/6 mouse assessed as effect on serum LDH level at 400 mg/kg, ip measured upto 24 hrs", "type": "organism-based", "settings": "in vivo"}, "[26]": {"system": "Plasmodium berghei", "assay": "Antimalarial activity against Plasmodium berghei assessed as reduction in oocyte burden in Anopheles stephensi mosquito midgut fed with blood isolated from compound treated parasite-infected Balb/c mouse at 200 mg/kg administered on day 1 and day 9 relative to control", "type": "functional", "set-up": "scale not given: the % may be the effect or the level left", "settings": "time 9 day"}, "[27]": {"assay": "Toxicity in C57BL/6 mouse assessed as effect on globulin level at 400 mg/kg, ip measured upto 24 hrs (reference value: 4.19 gm/dl)", "type": "organism-based", "settings": "in vivo"}, "[28]": {"system": "Plasmodium berghei", "assay": "In vivo antimalarial activity against Plasmodium berghei ANKA strain infected in C57BL/6 mouse assessed as increase in mean survival time at 50 mg/kg, ip administered for 4 days and measured upto 30 days (reference value: 13 days)", "type": "functional", "settings": "time <= 30 day"}, "[29]": {"assay": "Toxicity in C57BL/6 mouse assessed as effect on urea level at 400 mg/kg, ip measured upto 24 hrs (reference value: 44.50 mg/dl)", "type": "organism-based", "settings": "in vivo"}, "[30]": {"assay": "Toxicity in C57BL/6 mouse assessed as effect on SGOT level in serum at 400 mg/kg, ip measured upto 24 hrs (reference value: 147.2 U/L)", "type": "organism-based", "settings": "in vivo"}, "[31]": {"system": "Plasmodium berghei", "assay": "In vivo antimalarial activity against Plasmodium berghei ANKA strain infected in C57BL/6 mouse assessed as increase in mean survival time at 50 mg/kg, ip administered for 4 days and measured upto 30 days in the presence of artesunate (reference value: 13 days)", "type": "functional", "settings": "time <= 30 day"}, "[32]": {"system": "Plasmodium berghei", "assay": "Antimalarial activity against Plasmodium berghei infected in Balb/c mouse assessed as parasite killing at 200 mg/kg administered on day 1 and day 9 relative to control", "type": "functional", "settings": "time 9 day"}, "[33]": {"assay": "Toxicity in C57BL/6 mouse assessed as effect on kidney structure at 400 mg/kg, ip measured upto 24 hrs by H&E staining based histopathological analysis", "type": "organism-based", "settings": "in vivo"}, "[34]": {"system": "Plasmodium falciparum", "assay": "Antiplasmodial activity against artemisinin partially resistant Plasmodium falciparum harbouring C580Y mutant assessed as inhibition of parasitemia", "type": "functional, organism-based, Red blood cell", "settings": "Erythrocyte"}, "[35]": {"assay": "Cytotoxicity against human HepG2 cells assessed as reduction in cell viability incubated for 48 hrs by MTT assay", "type": "toxicity, cell-based", "settings": "read-out: TC50"}, "[36]": {"assay": "Toxicity in C57BL/6 mouse assessed as effect on indirect bilirubin level at 400 mg/kg, ip measured upto 24 hrs (reference value: 0.22 mg/dl)", "type": "organism-based", "settings": "in vivo"}, "[37]": {"system": "Plasmodium falciparum", "assay": "Resistance index, ratio of IC50 for antiplasmodial activity against artemisinin partially resistant Plasmodium falciparum harbouring C580Y mutant to IC50 for antiplasmodial activity against Plasmodium falciparum 3D7", "type": "functional"}, "[38]": {"assay": "Toxicity in C57BL/6 mouse assessed as effect on alkaline phosphatase level in serum at 400 mg/kg, ip measured upto 24 hrs (reference value: 108.3 U/L)", "type": "organism-based", "settings": "in vivo"}}, "note": "pIC50: −log10 of the molar value. Active and inactive are the calls of the source. The rule behind the calls is not given here.", "data": [{"smiles": "O=C(N[C@@H](Cc1ccccc1)[C@@H](O)CN1CCN(Cc2ccccc2)CC1)c1ccc2ccccc2c1", "values": [{"measurement": "Activity", "setting": "[1]", "result": 22.45, "unit": "U/L"}, {"measurement": "Activity", "setting": "[2]", "result": 2.68, "unit": "g/dL"}, {"measurement": "pIC50", "setting": "[3]", "result": 6.82}, {"measurement": "inhibition", "setting": "[4]", "result": 17.7, "unit": "%"}, {"measurement": "Activity", "setting": "[5]", "result": "Non-Toxic"}, {"measurement": "selectivity ratio", "setting": "[6]", "result": 1560}, {"measurement": "Activity", "setting": "[7]", "result": "Non-Toxic"}, {"measurement": "Activity", "setting": "[8]", "result": 0.11, "unit": "mg/dL"}, {"measurement": "Activity", "setting": "[9]", "result": 99, "unit": "%"}, {"measurement": "Activity", "setting": "[10]", "result": 2.49, "unit": "mg/dL"}, {"measurement": "Activity", "setting": "[11]", "result": "Active"}, {"measurement": "Activity", "setting": "[12]", "result": "Active"}, {"measurement": "Activity", "setting": "[13]", "result": "Active"}, {"measurement": "Activity", "setting": "[14]", "result": 0.77, "unit": "mg/dL"}, {"measurement": "Activity", "setting": "[15]", "result": 0.28, "unit": "mg/dL"}, {"measurement": "Drug recovery", "setting": "[16]", "result": "> 87.3", "unit": "%"}, {"measurement": "Activity", "setting": "[17]", "result": 75, "unit": "%"}, {"measurement": "Activity", "setting": "[18]", "result": "Non-Toxic"}, {"measurement": "Activity", "setting": "[19]", "result": 6.82, "unit": "g/dL"}, {"measurement": "Activity", "setting": "[20]", "result": 9.24, "unit": "mg/dL"}, {"measurement": "Activity", "setting": "[21]", "result": "Non-Toxic"}, {"measurement": "Activity", "setting": "[22]", "result": "Non-Toxic"}, {"measurement": "pIC50", "setting": "[23]", "result": 5.81}, {"measurement": "Activity", "setting": "[24]", "result": "Active"}, {"measurement": "Activity", "setting": "[25]", "result": "Non-Toxic"}, {"measurement": "Activity", "setting": "[26]", "result": 80, "unit": "%"}, {"measurement": "Activity", "setting": "[27]", "result": 4.14, "unit": "g/dL"}, {"measurement": "MST", "setting": "[28]", "result": 17, "unit": "days"}, {"measurement": "Activity", "setting": "[29]", "result": 49.03, "unit": "mg/dL"}, {"measurement": "Activity", "setting": "[30]", "result": 123.1, "unit": "U/L"}, {"measurement": "MST", "setting": "[31]", "result": 27, "unit": "days"}, {"measurement": "Activity", "setting": "[32]", "result": 100, "unit": "%"}, {"measurement": "Activity", "setting": "[33]", "result": "Non-Toxic"}, {"measurement": "pIC50", "setting": "[34]", "result": 6.96}, {"measurement": "CC50 at 48 h", "setting": "[35]", "result": 234000, "unit": "nM"}, {"measurement": "Activity", "setting": "[36]", "result": 0.17, "unit": "mg/dL"}, {"measurement": "Ratio IC50", "setting": "[37]", "result": 0.72}, {"measurement": "Activity", "setting": "[38]", "result": 41.9, "unit": "U/L"}]}]}
